Laboratory results taken from US12251373B2, “Compounds and methods of treating retinal degeneration” (CASE WESTERN RESERVE UNIVERSITY, priority 2017, dated 2025).
Read-outs that look alike come from different tables or passages of the source.

Key:
Assay type in all cases: cell-based
[1] = target: mouse P23H opsin mutant (Mus musculus, UniProt P15409, P23H); test: β-Gal fragment complementation assay: rescue of P23H opsin transport from ER to plasma membrane, U2OS(PLC-EA/P23H-PK) cells; conditions: for Emax: U2OS
Text: U2OS(PLC-EA/P23H-PK) cells. A U2OS stable cell line was generated by DiscoveRx, Inc. (Fremont, CA, USA) for the β-Gal fragment complementation assay used in the small molecule HTS for rescue of P23H opsin transport. U2OS cells that continually express P23H-PK and PLC-EA fusion proteins were generated. Briefly, this small subunit of […] (PK fragment) was fused to the C-terminal of the mouse P23H opsin mutant, while the large EA fragment, a subunit of […], was fused with PLC, a plasma membrane anchored peptide. Both constructs were subcloned by DicoveRx, Inc. and transferred into U2OS cells by viral infections. Positive clones were selected under treatment with hygromycin and geneticin.
Briefly, U2OS(PLC-EA/P23H-PK) cells were suspended in assay medium at 3×10^5 cells mL^−1. The cell suspension was dispensed into 384-well plates (Greiner Bio-one, Monroe, NC, USA) at 20 μL per well, with a Multidrop dispenser (Thermo Scientific, Waltham, MA, USA). Plates with cells then were centrifuged at 200 g for 15 s before incubation at 37° C. with 5% CO2. Plates were removed 24 h later for treatment with tested compounds. A total of 248 plates containing 79,080 compounds from three small molecule libraries were paired with an equal number of assay plates with cultured cells. Due to a limited capacity, these plates were assayed in seven batches. An average of 56.3 nL of 10 mM compound in DMSO was dispensed into each well from column 3 to 22 of paired assay plates using a 50 nL 384-pintool system, such that the final concentration of each compound was 22.52 μM on average. […] Each assay plate was shaken for 5 s before further incubation at 37° C. with 5% CO2. […] Assay plates were incubated in the dark for 60-90 min, and luminescence was read from each assay plate with an Envision microplate reader (PerkinElmer) during a 0.1 s per well integration time. The mean and s.d. of readouts in column 2 of each plate were calculated as Mean0% and SD0%, whereas the average and s.d. of readouts in column 23 were calculated as Mean100% and SD100%. Equation 1: Activity scores (%)=(RLUcp−Mean0%)/(Mean100%−Mean0%)×100%, where RLUcp is the relative luminescence unit derived for cells treated with a compound. Equation 2: Z′-factor=1-3×(SD0%+SD100%)/(Mean100%−Mean0%); Equation 3: signal-to-background (S/B) ratio=Mean100%/Mean0%. Activities of all tested compounds were registered with their compound ID by GeneData Screener (Genedata, Basel, Switzerland) and Pipeline Pilot software (Accelrys, San Diego, CA, USA). Hits, cherry-picked from a separate stock dose-dependent activity test, were selected with an activity score cutoff at 20%. Activity of each hit was tested again with the β-Gal fragment complementation assay in a 10-dose series with each dose tested in triplicate. The 10 doses tested were 80, 40, 20, 10, 5, 2.5, 1.25, 0.625, 0.313, and 0.156 μM. Dose-dependent curves of each hit compound were fitted with GeneData and Origin software.
Detailed synthetic steps are described in FIG. 18. […] YC-002-YC-021 were purchased from commercial vendors including Enamine LLC (Monmouth Jct., NJ, USA), Matrix Scientific (Columbia, SC, USA) and Tokyo Chemical Industry Co., Ltd. (Portland, OR, USA). […] Activities of YC compounds were tested with the β-Gal fragment complementation assay, as described in a prior section. All YC compounds were tested at 10 doses, each in triplicate: 80, 40, 20, 10, 5, 2.5, 1.25, 0.625, 0.313, and 0.156 μM.

[2] = target: T1, mouse P23H opsin (Mus musculus, UniProt P15409, P23H); test: Immunostain and image-based high-content analysis of P23H mutant opsin in NIH3T3 cells; conditions: ratio of P23H rod opsin fluorescence on plasma membrane to whole cell; for EC50: read-out: Immunostaining HCS MEM-Total ratio EC50
T1 construct: expressed in transfected cells
Text: Three NIH3T3 stable cell lines, NIH3T3-(WT-opsin/GFP), NIH3T3-(P23H-opsin/GFP), and NIH3T3-(GFP) were previously generated which stably express mouse WT opsin and GFP; P23H opsin and GFP; and only GFP, respectively. GFP is expressed separately from opsin in these cell lines. NIH3T3 cells were from ATCC. DNA constructs for generating these stable cell lines were confirmed by Sanger sequencing. Expression of GFP was confirmed by green fluorescence imaging, and expression of P23H and WT opsin were confirmed by immunoblots.
To characterize the effect of active compounds on the localization of P23H mutant opsin in mammalian cells, an image-based assay was used with cells immunostained for WT or P23H mutant opsin protein. Briefly, NIH3T3-(P23H-opsin/GFP) or NIH3T3-(WT-opsin/GFP) cells were seeded at 5,000 cells per well in a 384-well cell-carrier plate (PerkinElmer) and incubated at 37° C. with 5% CO2 for 2 h. Cells were treated with compounds as described for the β-Gal fragment complementation assay and incubated in assay medium for 24 h. The assay medium then was aspirated, and cells were fixed with 4% paraformaldehyde at 20 μL per well for 20 min at RT. Cells were immunostained in one of two ways: cell membranes were either permeabilized with 0.1% Triton X-100 for 15 min or left intact and then were incubated with 10% goat serum (Life Technologies). To detect opsin on the cell plasma membrane only, intact cells were immunostained with 20 μL per well of 20 μg mL^−1 B6-30 anti-rhodopsin antibody that recognizes the N-terminal epitope on the extracellular side of rhodopsin. To detect total opsin, cells were permeabilized with Triton X-100 and immunostained with 50 μg mL^−1 1D4 anti-rhodopsin antibody specific for the C-terminal epitope on the intracellular side of rhodopsin. Opsin immunostaining was visualized by incubating cells with 5 μg mL^−1 Cy3-conjugated goat anti-mouse IgG antibody. Three washes with phosphate-buffered saline (PBS: 10 mM Na2HPO4, 1.8 mM KH2PO4, pH 7.4, 137 mM NaCl, and 2.7 mM KCl) were performed between each step of incubation with antibody. In the last wash with PBS, DAPI was added to each well at 300 nM. Fluorescence images were obtained with the Operetta High Content Imaging System (PerkinElmer) using a 20× long objective. Five fields were taken of each well for cell images using three channels for fluorescence: GFP (100 ms), Cy3 (300 ms), and DAPI (50 ms). Images were analyzed with Acapella software from the Columbus data storage and analysis system (PerkinElmer). For cells immunostained with opsin on the non-permeabilized cell membrane only, an average of total fluorescence intensity of Cy3 per cell was used to quantify opsin in each well of the 384-well plate. For cells immunostained with opsin in permeabilized whole cells, an average ratio of Cy3 intensity on the cell plasma membrane (PM) to that of the entire cell (opsin ratio PM-to-total) was calculated for each well of a 384-well plate to quantify opsin transport to the plasma membrane. The plasma membrane was defined within ±5% of the cell border.

[3] = target: T2, P23H opsin (Mus musculus, UniProt P15409, P23H); test: Immunoblot of P23H opsin glycosylation in NIH3T3 cells; parameters: key to Improved glycosylation: n = no; y = yes; conditions: P23H opsin
T2 construct: expressed in transfected cells
Description: NIH3T3-(P23H-opsin/GFP) or NIH3T3-(WT-opsin/GFP) cells were seeded in a 48-well plate (Corning Costar) at 3.2×10^5 cells per well and incubated at 37° C. with 5% CO2 for 2 h. One hundred-μL of assay medium containing a compound at 5× its final concentration was added to each well. The plate was gently shaken for 5 s before further incubation at 37° C. with 5% CO2 for 24 h. The assay medium then was aspirated, and cells were lysed with 100 μL per well PBS containing 0.1% Triton X-100 and complete protease inhibitor cocktail (Roche, Basel, Switzerland) followed by sonication for 3 s. Protein concentrations were determined with the Bradford assay. For PNGase F catalyzed deglycosylation, 3 μL of PNGase F (1,500 U, NEB) was added to the cell lysate and the mixture was incubated at room temperature for 1 h before immunoblotting. For NIH3T3-(P23H-opsin/GFP) cells, 15 μg of total protein were loaded per well onto an SDS-polyacrylamide gel; whereas for NIH3T3-(WT-opsin/GFP) cells, 10 μg of total protein was loaded per well. Opsin protein was immunostained with 0.2 μg mL^−1 horseradish peroxidase-conjugated 1D4 anti-rhodopsin antibody. Band intensities were measured with ImageJ software (http://imagej.nih.gov/ij/; National the Institutes of Health, Bethesda, MD, USA) and normalized to a glyceraldehyde 3-phosphate dehydrogenase (GAPDH) loading control.

[4] = Table 3, modifications at C4 of the furan-2(5H)-one ring, read-out: Potency
[5] = Table 1, experimental maximum, read-out: β-Gal fragment complementation assay Activity score (%) Max (Exp)
[6] = Table 1, fitted maximum, read-out: β-Gal fragment complementation assay Activity score (%) Max (fit)
[7] = read-out: β-Gal fragment complementation assay Activity score (%) EC50
[8] = Table 2, modifications at C3 of the furan-2(5H)-one ring, read-out: Potency EC50
[9] = Table 5, more than one site modified, read-out: Potency

SMILES	Emax ([1]; read-out: Efficacy (%)) [%]	Emax [1, 5] [%]	Emax [1, 6] [%]	EC50 [1, 7] [µM]	Immunostaining HCS MEM-Total ratio Max (fit) [2]	EC50 [2] [µM]	Improved glycosylation [3]	also measured
O=C1OCC(c2cccs2)=C1c1cccs1 [YC-002]	6							EC50 [1, 4]: 33 µM
O=C1OCC(c2ccc(F)cc2)=C1c1cccs1 [YC-044]	10							EC50 [1, 4]: 37.6 µM
O=C(NCCCn1cccc1)c1cc(-c2ccccc2)on1 [Compound F5937-0207]		32.8	37.3	8.38	0.021	1.33	n	
COc1ccccc1C1=C(c2ccc(Cl)s2)COC1=O [YC-033]	38.3							EC50 [1, 8]: 8.5 µM
O=C1OCC(c2ccc(Br)s2)=C1c1ccc(Cl)c(Cl)c1 [YC-008]	11							EC50 [1, 9]: 25 µM
O=C1OCC(c2ccc(Cl)cc2)=C1c1cccs1 [YC-003]	5							EC50 [1, 4]: 22 µM
COCCNC(=O)c1sc2c(cnc3ccc(OC)cc32)c1-c1ccccc1 [Compound F3382-5924]		931	155	28.6	0.046	2.42	y	
O=C1OCC(c2ccc(Br)s2)=C1c1ccc(F)cc1 [YC-009]	10							EC50 [1, 9]: 7.2 µM
Cc1cc(OCC(=O)Nc2cc(N3CCOCC3)ncn2)cc(C)c1Cl [Compound F6257-1860]		211	234	10.7	0.022	1.07	n	
O=C(Cn1c2c(c(=O)n(C3CCCCC3)c1=O)CCC2)Nc1cccc(F)c1 [Compound F5111-0031]		60.4	165	54.3	0.025	6.76	y	
O=C1OCC(c2ccc(Cl)s2)=C1c1ccccc1Cl [YC-032]	288							EC50 [1, 8]: 5.8 µM
O=C1OCC(c2ccc(Cl)s2)=C1c1ccccn1 [YC-043]	214							EC50 [1, 8]: 19 µM
O=C1OCC(c2ccc(Br)s2)=C1c1ccc(Cl)cc1 [YC-011]	10							EC50 [1, 9]: 7.5 µM
O=C(NCCn1ncc2c(NCc3ccco3)ncnc21)c1cc(-c2ccccc2)on1 [Compound F2902-1134]		23.1	31.5	21.6	0.031	4.15	n	
O=C(C1CC1)N(CCn1cccn1)c1nc2c(Cl)cccc2s1 [Compound F5581-0240]		244	230	5.93	0.010	0.64	y	
O=C1OCC(c2ccc(F)s2)=C1c1cccs1 [YC-021]	160							EC50 [1, 4]: 103 µM
O=C1OCC(c2ccc(Cl)s2)=C1c1cccc(Cl)c1 [YC-034]	43.5							EC50 [1, 8]: 4.75 µM
O=C1OCC(c2ccc(Cl)s2)=C1c1ccccc1[N+](=O)[O-] [YC-013]	111							EC50 [1, 8]: 11 µM
O=C1OCC(c2ccco2)=C1c1cccs1 [YC-049]								Efficacy (%) ([1]; Table 3, normalized to 5 μM 9-cis-retinal): 112%
Cc1sc(C)c(C2C(=O)OC(=O)C2c2c(C)sc(C)c2C)c1C (centres unmarked) [YC-018]	95							
